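48-hour exposure; five concentrations; linearly interpolated endpoints. GI50 = concentration required for 50% inhibition of growth. TGI denotes the concentration required for complete inhibition of growth.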

Experiment in all cases: inhibition of tumour cell growth, NCI panel, 48 h
In assay [1] the test system is TK-10 renal.
In assay [2] the test system is HCT-116 colon.
The subject of assay [3] is HT29 colon.
Assay [4] deals with PC-3 prostate.
The subject of assay [5] is CAKI-1 renal.
The test system of assay [6] is RPMI-8226 leukemia.
The test system of assay [7] is SK-MEL-28 melanoma.
Assay [8] has as its system HCT-15 colon.
In assay [9] the test system is NCI/ADR-RES ovarian.
For assay [10], the system named is SNB-19 CNS.

Regarding `Nc1nc(N)[n+]([O-])c(N)c1NCO`, the TGI in [1], in assay [2], in [3], in assay [4], in [5] and in assay [6] was greater than 100 µM throughout. Moreover, the TGI in assay [7], in [8], in assay [9] and in [10] was greater than 100 µM throughout.
On to `O=C1C2CC(Cl)C(SSC3CC4C(=O)N(SC(Cl)(Cl)C(Cl)Cl)C(=O)C4CC3Cl)CC2C(=O)N1SC(Cl)(Cl)C(Cl)Cl` (stereo not drawn), for which the TGI in assay [1] came out at 7.07 µM; in assay [2] it was 7.38 µM; in assay [4], 2.79 µM; in [5] it was 6.7 µM; in assay [6], 5.35 µM; in [7] it was 6.18 µM. Besides, the figures for the TGI in assay [9] and in [10] were 6.05 µM and 12.7 µM, respectively.
Turning to `Cc1cc2c(C)c3cc(C)c(N)cc3nc2cc1N`, the GI50 in assay [1] is 1.31 µM; in assay [2], 0.383 µM; in [3], 0.373 µM; in assay [4], 1.11 µM; in assay [5], 2.03 µM; in [6], 1.33 µM. Also, the GI50 in assay [7] was 2.69 µM; in assay [8], 1.43 µM; in assay [9], 4.92 µM; in [10], 0.685 µM. For the same molecule, the TGI in assay [1] stood at 5.39 µM; in [2] it was 6.14 µM; in [3], 2.09 µM; in assay [4] it was 7.06 µM; in [5], 8.66 µM; in [6] it was 5.92 µM. Further, the TGI in [7] turned out to be 10.5 µM; in assay [8] it was 10.6 µM; in assay [9], 25.3 µM; in assay [10], 10.2 µM.
In the case of `C[C@@H](c1ccc2nccn2c1)n1nnc2ncc(-c3cnn(C)c3)nc21`, the GI50 in [1] is greater than 100 µM; in [2] it was greater than 100 µM; in assay [3], greater than 100 µM; in assay [4], greater than 100 µM; in assay [5], greater than 100 µM; in assay [6], 47.6 µM. Further, the GI50 in [7], in assay [8], in assay [9] and in [10] was greater than 100 µM in each case. The TGI in assay [1], in [2], in [3], in assay [4], in [5] and in [6] was greater than 100 µM throughout. The TGI in assay [7], in [8], in assay [9] and in assay [10] was greater than 100 µM each time.
Take `Cc1ccc2c(c1)NC(c1ccc(C(=O)O)cc1)c1cccn1-2` (stereo not drawn): the TGI is greater than 100 µM in assay [1]; greater than 100 µM in assay [2]; greater than 100 µM in assay [3]; greater than 100 µM in assay [4]; 72.7 µM in assay [5]; greater than 100 µM in assay [6]. For the same molecule, the values for the TGI in [7], in [8] and in [10] were greater than 100 µM, greater than 100 µM and 94.6 µM, respectively.
With `COc1cc(-c2cc(C(=O)N3CCN(C(=O)c4ccccc4NCc4ccco4)CC3)nc3cc(-c4ccccc4)nn23)cc(OC)c1OC`, the GI50 in assay [1] was 6.74 µM; in [2], 3.26 µM; in assay [3], 1.56 µM; in assay [4] it was 2.2 µM; in assay [5], 1.34 µM; in assay [6], 3.61 µM. Moreover, the GI50 is 16.6 µM in assay [7], 3.4 µM in assay [8], 1.2 µM in [9] and 7.87 µM in [10]. The TGI in [1] was greater than 100 µM; in assay [2] it was greater than 100 µM; in [3] it was 10.7 µM; in assay [4], greater than 100 µM; in assay [5] it was greater than 100 µM; in [6] it was greater than 100 µM. Besides, the TGI was greater than 100 µM in assay [7], greater than 100 µM in assay [8], greater than 31.8 µM in [9] and greater than 100 µM in assay [10].
With `COc1cccc(NC(=O)c2sc3nc4c(cc3c2N)CCCC4)c1`, the GI50 in assay [1] is 2.97 µM; in [2], 0.475 µM; in assay [4], 0.504 µM; in assay [5], 0.503 µM; in assay [6] it was 0.396 µM; in [7] it was 0.905 µM. In addition, the figures for the GI50 in assay [8], in assay [9] and in assay [10] were 0.387 µM, 0.485 µM and 0.813 µM, respectively. The TGI in [1] was 34 µM; in [2], greater than 100 µM; in [4] it was greater than 100 µM; in assay [5] it was 66.3 µM; in assay [6] it was 78.3 µM; in assay [7], greater than 100 µM. Further, the TGI in assay [8] is greater than 100 µM; in assay [9], greater than 100 µM; in assay [10], 53.5 µM.
Turning to `COc1cc(O)c(C(=O)/C=C/c2ccccc2)c(OC)c1`, the TGI in assay [1] came out at 19.7 µM; in [2] it was 20.1 µM; in [3], 22.4 µM; in [5], 18.2 µM; in assay [6], 10.3 µM; in assay [7], 13.1 µM. In addition, the figures for the TGI in assay [8], in assay [9] and in [10] were 16.7 µM, 14.4 µM and 14.6 µM, respectively.
For the molecule `COc1cc2c3c(n(C)c(=O)c2cc1OC)-c1cc2c(cc1/C3=C\CCCCN)OCO2`, the GI50 is 3.95 µM in assay [1]; 7.45 µM in [3]; 20 µM in assay [4]; 4.41 µM in assay [5]; 4.44 µM in assay [6]; 28.1 µM in assay [7]. Moreover, the values for the GI50 in assay [8], in assay [9] and in [10] were 25.1 µM, 4.74 µM and 23.9 µM, respectively. Also, the TGI in assay [1] was 17.6 µM; in assay [3] it was greater than 100 µM; in [4] it was 62.1 µM; in [5], 17.1 µM; in assay [6], 24.7 µM; in [7], greater than 100 µM. Further, the results for the TGI in assay [8], in assay [9] and in assay [10] were greater than 100 µM, 18.1 µM and 71.9 µM, respectively.
For the molecule `CC12OC(C(=O)C13CC3)C1C(=O)c3ccccc3C(=O)C12` (stereo not drawn), the GI50 is 22.8 µM in [1]; 34 µM in assay [2]; 48.7 µM in [3]; 19.8 µM in [4]; 21.6 µM in [5]; 21.6 µM in [7]. The GI50 in [9] was 24.5 µM; in assay [10], 36.4 µM. The TGI is 58.8 µM in assay [1]; greater than 100 µM in [2]; greater than 100 µM in assay [3]; 52.9 µM in [4]; 38.5 µM in assay [5]; 62.1 µM in assay [7]. In addition, the TGI in assay [9] is 77 µM; in [10], greater than 100 µM.
